# Measurements: patent US10617654B2, “Use of fenoterol and fenoterol analogues in the treatment of glioblastomas and astrocytomas” (priority 2010, dated 2020)
# Values joined by “and” are separate entries in the source; they are usually repeats but may differ in a detail not shown here. Equal values may be shown once. Read-outs that look alike come from different tables or passages of the source.
# Columns and labels:
# [1] = for Individual plasma concentration: individual rat; for A (zero time intercept, alpha phase) / AUC / B (zero time intercept, beta phase) / Cl / T1/2 (K10) / Vss: 5 mg/kg intravenous, two-compartment open model
# Description: Dose calculations (mg/kg) were based on the individual body weight measured on the day of treatment. Study duration for pharmacokinetic studies was 6 hours. […] Urine was collected for 0-6 hours and 6 to 24 hours from 3 rats in each treatment group.
# In the two-compartment model, the drug distributes into two compartments, the central compartment and the tissue, or peripheral compartment. The central compartment represents the blood, extracellular fluid, and highly perfused tissues. The drug distributes rapidly and uniformly in the central compartment. A second compartment, known as the tissue or peripheral compartment, contains tissues in which the drug equilibrates more slowly. Drug transfer between the two compartments is assumed to take place by first-order processes.
# The following abbreviations are utilized in Table 4 below: alpha—macro rate constant associated with the distribution phase; beta—macro rate constant associated with the elimination phase; A, B—zero time intercept associated with the alpha phase and beta phase, respectively; AUC—area under the curve; T1/2 (K10)—half-life associated with the rate constant K10; K10—elimination rate—rate at which the drug leaves the system from the central compartment; K12—rate at which drug enters tissue compartment from the central compartment; K21—rate at which drug enters central compartment from tissue compartment; V1—volume of distribution of the central compartment; V2—volume of distribution of the tissue compartment; Vss—volume of distribution at steady state; and Cl—clearance.
# 1321N1 cells [2] = assay: Cell cycle distribution by flow cytometry in 1321N1 cells; assay type: cell-based, human
# Text: Untreated cells were used as controls.
# [3] = test system: p27, phospho-Akt, cyclin D1, cyclin A, ERK1/2 in 1321N1 cells; assay: Western blot analysis of G1 arrest proteins in 1321N1 cells; assay type: cell-based, human
# Text: The ECL Plus Western Blotting Detection System of Amersham Biosciences (Piscataway, N.J.) and the procedure recommended by the manufacturer were used for the detection of antigens. Protein bands were quantified by analyzing the images obtained using an Alphaimager™ S-3400 (Alpha Innotech Corp., San Leandro, Calif.).
# 1321N1 cells [4] = assay: Inhibition of mitogenesis, [3H]-thymidine incorporation in 1321N1 cells; assay type: cell-based, human
# rat cardiomyocyte = assay: Rat cardiomyocyte contractility model; assay type: cell-based
# β2-AR [5] = target: T1, β2-AR (Homo sapiens (Human), UniProt P07550); details: previously reported; cited from earlier work
# T1 sequence (P07550 whole entry): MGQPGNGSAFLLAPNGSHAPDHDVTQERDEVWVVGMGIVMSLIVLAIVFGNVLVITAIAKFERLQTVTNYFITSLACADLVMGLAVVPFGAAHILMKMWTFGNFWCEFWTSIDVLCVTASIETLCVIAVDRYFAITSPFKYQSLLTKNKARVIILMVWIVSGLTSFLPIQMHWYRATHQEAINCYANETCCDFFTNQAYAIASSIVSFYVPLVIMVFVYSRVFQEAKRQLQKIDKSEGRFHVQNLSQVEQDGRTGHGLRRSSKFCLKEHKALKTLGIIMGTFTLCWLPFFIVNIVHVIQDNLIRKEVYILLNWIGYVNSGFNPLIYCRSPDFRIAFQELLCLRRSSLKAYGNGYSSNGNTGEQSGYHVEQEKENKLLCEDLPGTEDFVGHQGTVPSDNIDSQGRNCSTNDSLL
# [6] = Brain and plasma analysis of [3H]-(R,R)-methoxyfenoterol after IV administration; assay type: in vivo, male Sprague-Dawley rats; details: 5 mg/kg IV; for Brain, Mean / Percent of Dose in Brain, Mean / Plasma, Mean: three rats; for Brain, Individual / Percent of Dose in Brain, Individual / Plasma, Individual: individual rat
# Description: An overview of the research study design for evaluating the brain-to-plasma distribution of [^3H]
# (specific activity 57 Ci/mmol); vehicle was sterile saline, 0.9% sodium chloride, USP. Dose formulations were prepared on the day of the study. The amount of radioactivity in the dose formulation was determined by liquid scintillation. The study lasted for an hour and radioactivity levels in plasma and brain tissue were evaluated at the conclusion of the study. Approximately 5 mls of whole blood was collected. Blood samples were collected via cardiac puncture, transferred into a tube containing K3EDTA as the anticoagulant and kept on wet ice until processed to plasma. To generate plasma, samples were centrifuged within 15 minutes of collection at 2,500 RPM for 15 minutes at room temperature. Plasma was divided equally into three labeled cryovials and stored on ample dry ice until transferred to a freezer set at ≤−20° C. for storage until analysis. Duplicate aliquots were weighed and then combined with scintillation cocktail. The [^3H] radioactivity was determined on a liquid scintillation counter. Brain samples were snap frozen in liquid nitrogen and stored at ≤−70° C. until analysis. Whole brain tissue was homogenized and the weight of the homogenate was determined. Duplicate aliquots from the homogenate were weighed, solubilized and then combined with scintillation cocktail. The [^3H] radioactivity was determined on a liquid scintillation counter.
# β2-AR [7] = target: T1, β2-AR; assay type: cell-based; details: 1321N1 cells, basal below 0.5 nmol/mg protein
# Description: HEK-β2-AR, 1321N1 or U87MG cells were plated in 96-well plates. When the cells reached confluence, the medium was removed and each well rinsed with 0.1 mL of Krebs-HEPES buffer (130 mM NaCl, 4.8 mM KCl, 1.2 mM KH2PO4, 1.3 mM CaCl2, 1.2 mM MgSO4, 25 mM HEPES, and 10 mM glucose, pH 7.3). The plates were preincubated for 10 minutes at room temperature with buffer alone; then test compound diluted in buffer was added to the wells for quadruplicate determinations. The plates were incubated for an additional 10 minutes with the test compound. After incubation, the medium was removed and 0.1 mL of 0.5 M formic acid was added. After a minimum of 1 hour, the supernatant was removed and lyophilized. cAMP was quantitated using the protein kinase binding assay of Gilman. The amount of protein per well was determined using the BCA protein determination kit (Thermo Scientific Pierce, Rockford, Ill.) and was used to calculate the amount of cAMP/mg/well.
# [8] = Homo sapiens, 1321-N1, read-out: Mitogenesis Inhibition IC50
# [9] = 5 min, listed as [^3H]—(R,R)-methoxyfenoterol
# [10] = 60 min, listed as [^3H]—(R,R)-methoxyfenoterol
compound,measurement,setting,value
"C[C@H](Cc1ccc(O)cc1)NC[C@H](O)c1cc(O)cc(O)c1 [(R,R)-1, (R,R)-(−)-Fenoterol]",Individual plasma concentration,"[1]; 5 mg/kg IV, 15 min",0.36 µg/mL
same,Individual plasma concentration,"[1]; 5 mg/kg IV, 30 min",0.17 µg/mL and 0.50 µg/mL
same,Individual plasma concentration,"[1]; 5 mg/kg IV, 60 min",0.05 µg/mL
same,Individual plasma concentration,"[1]; 5 mg/kg IV, 120 min",0.03 µg/mL and 0.01 µg/mL
same,Individual plasma concentration,"[1]; 5 mg/kg IV, 300 min",0.005 µg/mL
same,Individual plasma concentration,"[1]; 5 mg/kg IV, 360 min",0.08 µg/mL and 0.03 µg/mL
same,"Plasma concentration, Average","[1]; rats, 5 mg/kg IV, 15 min",360 ng/mL
same,"Plasma concentration, Average","[1]; rats, 5 mg/kg IV, 30 min",340 ng/mL
same,"Plasma concentration, Average","[1]; rats, 5 mg/kg IV, 60 min",50 ng/mL
same,"Plasma concentration, Average","[1]; rats, 5 mg/kg IV, 120 min",20 ng/mL
same,"Plasma concentration, Average","[1]; rats, 5 mg/kg IV, 240 min",10 ng/mL
same,"Plasma concentration, Average","[1]; rats, 5 mg/kg IV, 300 min",5 ng/mL
same,"Plasma concentration, Average","[1]; rats, 5 mg/kg IV, 360 min",60 ng/mL
same,"A (zero time intercept, alpha phase)",[1]; rats,1.6300 µg/mL
same,AUC,[1]; rats,29.6861 µg·min/mL
same,"B (zero time intercept, beta phase)",[1]; rats,0.0577 µg/mL
same,Cl,[1]; rats,51.54 mL/min
same,T1/2 (K10),[1]; rats,12.19 min
same,Vss,[1]; rats,1911.70 mL
same,lowest dose arresting the cell cycle,1321N1 cells [2],0.1 nM
same,phosphorylation of ERK1/2,[3],only a modest effect
same,protein expression of cyclin A,[3],down-regulated
same,protein expression of cyclin D1,[3],down-regulated
same,phosphorylation of Akt at Ser-473,"[3]; dose dependent, nanomolar concentrations",inhibited phosphorylation
same,protein levels of cyclin-dependent kinase inhibitor p27,[3]; nanomolar concentrations,significantly increased
"COc1ccc(C[C@@H](NC[C@H](O)c2cc(O)cc(O)c2)C(C)C)cc1 [(R,R)-4-methoxy-isopropylfenoterol]",IC50,"1321N1 cells [4]; [3H]-thymidine incorporation, 1321N1 cells, mean ± SD, n = 4, read-out: Mitogenesis Inhibition IC50",946 nM
same,EC50,rat cardiomyocyte,> 10000 nM
"CC[C@H](Cc1ccc(O)cc1)NC[C@H](O)c1cc(O)cc(O)c1 [(R,R)-ethylfenoterol, (R,R)-(−)-ethylfenoterol]",IC50,1321N1 cells [4]; [8],1.44 nM
same,EC50,rat cardiomyocyte,8550 nM
"C[C@@H](Cc1cccc2ccccc12)NC[C@H](O)c1cc(O)cc(O)c1.O=C(O)/C=C/C(=O)O [(R,S)-5, (R,S)-(−)-5-{1-hydroxy-2-[1-methyl-2-(1-naphthyl)ethylamino]ethyl}-1,3-benzenediol fumarate]",Individual plasma concentration,"[1]; 5 mg/kg IV, 5 min, listed as (R,S)-naphthylfenoterol, fumarate",2.52 µg/mL and 2.10 µg/mL
same,Individual plasma concentration,"[1]; 5 mg/kg IV, 240 min, listed as (R,S)-naphthylfenoterol, fumarate",0.11 ug/ml (3×) and 0.13 ug/ml (2×)
same,Individual plasma concentration,"[1]; 5 mg/kg IV, 300 min, listed as (R,S)-naphthylfenoterol, fumarate",0.10 ug/ml (2×) and 0.11 ug/ml (2×) and 0.12 ug/ml
same,"systemic exposure (AUC) compared to (R,R)-fenoterol","[1]; rats, 5 mg/kg IV",significantly higher
same,"Plasma concentration, Average","[1]; rats, 5 mg/kg IV, 5 min",2110 ng/mL
same,"Plasma concentration, Average","[1]; rats, 5 mg/kg IV, 15 min",680 ng/mL
same,"Plasma concentration, Average","[1]; rats, 5 mg/kg IV, 30 min",430 ng/mL
same,"Plasma concentration, Average","[1]; rats, 5 mg/kg IV, 60 min",340 ng/mL
same,"Plasma concentration, Average","[1]; rats, 5 mg/kg IV, 120 min",240 ng/mL
same,"Plasma concentration, Average","[1]; rats, 5 mg/kg IV, 240 min",120 ng/mL
same,"Plasma concentration, Average","[1]; rats, 5 mg/kg IV, 300 min",110 ng/mL
same,"Plasma concentration, Average","[1]; rats, 5 mg/kg IV, 360 min",90 ng/mL
same,"A (zero time intercept, alpha phase)",[1]; rats,4.0365 µg/mL
same,AUC,[1]; rats,116.88 µg·min/mL
same,"B (zero time intercept, beta phase)",[1]; rats,0.4372 µg/mL
same,Cl,[1]; rats,12.66 mL/min
same,T1/2 (K10),[1]; rats,18.11 min
same,Vss,[1]; rats,2203.75 mL
"CC[C@@H](Cc1ccc(O)cc1)NC[C@H](O)c1cc(O)cc(O)c1 [(R,S)-ethylfenoterol, (R,S)-(−)-ethylfenoterol]",IC50,1321N1 cells [4]; [8],17.9 ± 4.56 nM
"C[C@@H](Cc1ccc(O)cc1)NC[C@@H](O)c1cc(O)cc(O)c1 [(S,S)-1, (S,S)-(+)-Fenoterol]",EC50,rat cardiomyocyte,55000 nM
CC(C)NCC(O)c1ccc(O)c2[nH]c(=O)ccc12 (centres unmarked) [Compound 50],Ki,β2-AR [5],170 nM
same,Ki β1/Ki β2,β2-AR [5],1.7
NCC(O)c1ccc(O)c2[nH]c(=O)ccc12 (centres unmarked) [Compound 51],Ki,β2-AR [5],6300 nM
same,Ki β1/Ki β2,β2-AR [5],1.3
"Cc1ccc(OCC(O)C(C)NC(C)C)c2c1CCC2 (centres unmarked) [ICI 118-551, reference compound]",pA2,"1321N1 cells [4]; competitive inhibition of inhibitory effect of (R,R)-fenoterol, 1321N1 cells",8.9
same,slope (pA2 analysis),"1321N1 cells [4]; inhibition of effect of (R,R)-fenoterol, 1321N1 cells",−1.3±0.3
"COc1ccc(C[C@@H](C)NC[C@H](O)c2cc(O)cc(O)c2)cc1.Cl [[^3H]-(R,R)-methoxyfenoterol]","Brain, Mean",[6]; 5 min,0.92 μg-equiv/g
same,"Percent of Dose in Brain, Mean",[6]; 5 min,0.14%
same,"Plasma, Mean",[6]; 5 min,3.25 μg-equiv/ml
same,"Brain, Mean",[6]; [9],0.92±0.10 μg-equiv/g
same,"Plasma, Mean",[6]; [9],3.25±0.15 μg-equiv/ml
same,"Brain, Mean",[6]; 15 min,0.80 μg-equiv/g
same,"Percent of Dose in Brain, Mean",[6]; 15 min,0.12%
same,"Plasma, Mean",[6]; 15 min,1.79 μg-equiv/ml
same,"Brain, Mean",[6]; 30 min,0.72 μg-equiv/g
same,"Percent of Dose in Brain, Mean",[6]; 30 min,0.11%
same,"Plasma, Mean",[6]; 30 min,1.53 μg-equiv/ml
same,"Brain, Mean",[6]; 60 min,0.70 μg-equiv/g
same,"Percent of Dose in Brain, Mean",[6]; 60 min,0.11%
same,"Plasma, Mean",[6]; 60 min,1.24 μg-equiv/ml
same,"Brain, Mean",[6]; [10],0.70±0.37 μg-equiv/g
same,"Plasma, Mean",[6]; [10],1.24±0.43 μg-equiv/ml
same,"percent dose found in the brain, any given animal",[6]; over 60 minutes,no more than 0.17%
same,decrease of plasma levels,[6]; from 5 minutes to 60 minutes,62%
same,"Brain, Individual",[6]; 5 min,1.00 μg-equiv/g and 0.80 μg-equiv/g and 0.95 μg-equiv/g
same,"Percent of Dose in Brain, Individual",[6]; 5 min,0.15% (2×) and 0.12%
same,"Plasma, Individual",[6]; 5 min,3.30 μg-equiv/ml and 3.08 μg-equiv/ml and 3.37 μg-equiv/ml
same,"Brain, Individual",[6]; 15 min,0.99 μg-equiv/g and 0.36 μg-equiv/g and 1.06 μg-equiv/g
same,"Percent of Dose in Brain, Individual",[6]; 15 min,0.15% and 0.06% and 0.16%
same,"Plasma, Individual",[6]; 15 min,2.19 μg-equiv/ml and 0.89 μg-equiv/ml and 2.29 μg-equiv/ml
same,"Brain, Individual",[6]; 30 min,0.22 μg-equiv/g and 1.00 μg-equiv/g and 0.95 μg-equiv/g
same,"Percent of Dose in Brain, Individual",[6]; 30 min,0.03% and 0.15% (2×)
same,"Plasma, Individual",[6]; 30 min,0.63 μg-equiv/ml and 1.97 μg-equiv/ml and 2.00 μg-equiv/ml
same,"Brain, Individual",[6]; 60 min,0.44 μg-equiv/g and 0.53 μg-equiv/g and 1.12 μg-equiv/g
same,"Percent of Dose in Brain, Individual",[6]; 60 min,0.06% and 0.09% and 0.17%
same,"Plasma, Individual",[6]; 60 min,0.97 μg-equiv/ml and 1.01 μg-equiv/ml and 1.73 μg-equiv/ml
C=C[C@@]1(C)CC(=O)[C@]2(O)[C@@]3(C)[C@@H](O)CCC(C)(C)[C@@H]3[C@H](O)[C@H](OC(C)=O)[C@@]2(C)O1 [forskolin],intracellular concentration of cAMP after treatment,β2-AR [7],~4 nmol/mg protein
